From publication PMC7449217, “The FDA-Approved Drug Nelfinavir Inhibits Lytic Cell-Free but Not Cell-Associated Nonlytic Transmission of Human Adenovirus” (Antimicrobial Agents and Chemotherapy, 2020)
Structures can show the parent of a compound that is named as a salt. Where two headings read alike, the source gives them in different places.

Legend:
[1] = test system: A549 cells; assay: TC50, number of nuclei in noninfected treated cells; format: cell-based, human
Description: Per 96-well plate, 15,000 A549 cells, 10,000 HeLa cells, 30,000 HBECs, 30,000 HCE cells, or 30,000 CMT-93 cells were seeded in 100 μl of the respective supplemented medium and allowed to settle for 1 h at room temperature (RT) prior to cell culture incubation at 37°C with 5% CO2 and 95% humidity. The following day, the medium was replaced with 50 μl of the respective virus stock dilution giving rise to 5 to 50 plaques per 96-well plate. Fifty microliters of nelfinavir to obtain a 0.1 to 50 μM final concentration or the DMSO solvent control was also added, both in supplemented medium. For each experiment, a noninfected, treated control was performed. For uphill plaque assays, the medium volume was increased to 150 μl with identical virus and drug concentrations. For wash-in/washout experiments, the virus was incubated on cells in supplemented medium for 1 h at 37°C, cells were washed with PBS, and a 100-μl drug dilution in supplemented medium was added. All experiments were performed in four technical replicates or as indicated. Cells were incubated under standard cell culture conditions. At the indicated times postinfection, the cells were fixed, and the nuclei were stained for 1 h at RT by the addition of 33 μl 16% (wt/vol) paraformaldehyde (PFA) and 4 μg/ml Hoechst 33342 (Sigma-Aldrich, St. Louis, MO, USA) in PBS. Cells were washed three times with PBS and stored in PBS supplemented with 0.02% N3 for infections with viruses harboring a GFP transgene. For wild-type (wt) viruses, cells were quenched in PBS supplemented with 50 mM NH4Cl, permeabilized using 0.2% (vol/vol) Triton X-100 in PBS, and blocked with 0.5% (wt/vol) bovine serum albumin (BSA) in PBS. […] Plates were imaged on either an IXM-XL or an IXM-C automated high-throughput fluorescence microscope (Molecular Devices, San Jose, CA, USA) using a 4× objective in wide-field mode. Hoechst staining was recorded in the 4′,6-diamidino-2-phenylindole (DAPI) channel, the fluorescein isothiocyanate (FITC)/GFP channel was acquired for viral GFP, and the tetramethyl rhodamine isothiocyanate (TRITC)/Texas Red channel was acquired for hexon immunofluorescence staining.
The infection phenotype for each well was quantified using Plaque2.0 ([101]). The number of plaques was determined based on the infection signal (viral GFP or hexon immunofluorescence staining). […] Data were plotted, and the EC50 (infected and treated cells), the TC50 (noninfected, treated cells), as well as the corresponding standard errors (SE) were determined using curve fitting in GraphPad (version 8.1.2; GraphPad Software, Inc.) using three-parameter inhibitor concentration-versus-response nonlinear regression. The mean TI50 was calculated as the […] ratio of the means. The TI50 SE was calculated by error propagation.

[2] = test system: HAdV-B11; assay: fluorescence-based plaque-forming assay, A549 cells; format: cell-based, human adenovirus; conditions: for TI50 (TC50/IC50): HAdV-B11 in A549, 3 dpi, Hexon
Description: (§1) Per 96-well plate, 15,000 A549 cells, 10,000 HeLa cells, 30,000 HBECs, 30,000 HCE cells, or 30,000 CMT-93 cells were seeded in 100 μl of the respective supplemented medium and allowed to settle for 1 h at room temperature (RT) prior to cell culture incubation at 37°C with 5% CO2 and 95% humidity. The following day, the medium was replaced with 50 μl of the respective virus stock dilution giving rise to 5 to 50 plaques per 96-well plate. Fifty microliters of nelfinavir to obtain a 0.1 to 50 μM final concentration or the DMSO solvent control was also added, both in supplemented medium. For each experiment, a noninfected, treated control was performed. For uphill plaque assays, the medium volume was increased to 150 μl with identical virus and drug concentrations. For wash-in/washout experiments, the virus was incubated on cells in supplemented medium for 1 h at 37°C, cells were washed with PBS, and a 100-μl drug dilution in supplemented medium was added. All experiments were performed in four technical replicates or as indicated. Cells were incubated under standard cell culture conditions. At the indicated times postinfection, the cells were fixed, and the nuclei were stained for 1 h at RT by the addition of 33 μl 16% (wt/vol) paraformaldehyde (PFA) and 4 μg/ml Hoechst 33342 (Sigma-Aldrich, St. Louis, MO, USA) in PBS. Cells were washed three times with PBS and stored in PBS supplemented with 0.02% N3 for infections with viruses harboring a GFP transgene. For wild-type (wt) viruses, cells were quenched in PBS supplemented with 50 mM NH4Cl, permeabilized using 0.2% (vol/vol) Triton X-100 in PBS, and blocked with 0.5% (wt/vol) bovine serum albumin (BSA) in PBS. Cells were incubated with 381.7 ng/ml mouse anti-HAdV hexon protein antibody (Mab8052; Sigma-Aldrich, St. Louis, MO, USA) and subsequently stained using 2 μg/ml goat anti-mouse-Alexa Fluor 594 (catalog number A21203 or A32742; Thermo Fisher Scientific, Waltham, MA, USA). Plates were imaged on either an IXM-XL or an IXM-C automated high-throughput fluorescence microscope (Molecular Devices, San Jose, CA, USA) using a 4× objective in wide-field mode. Hoechst staining was recorded in the 4′,6-diamidino-2-phenylindole (DAPI) channel, the fluorescein isothiocyanate (FITC)/GFP channel was acquired for viral GFP, and the tetramethyl rhodamine isothiocyanate (TRITC)/Texas Red channel was acquired for hexon immunofluorescence staining.
(§2) The infection phenotype for each well was quantified using Plaque2.0 ([101]). The number of plaques was determined based on the infection signal (viral GFP or hexon immunofluorescence staining). Nuclei stained with Hoechst were segmented by using CellProfiler ([178]). Infected nuclei were classified based on the median infection signal per nucleus in CellProfiler. Data were plotted, and the EC50 (infected and treated cells), the TC50 (noninfected, treated cells), as well as the corresponding standard errors (SE) were determined using curve fitting in GraphPad (version 8.1.2; GraphPad Software, Inc.) using three-parameter inhibitor concentration-versus-response nonlinear regression. The mean TI50 was calculated as the […] ratio of the means. The TI50 SE was calculated by error propagation.

[3] = test system: HAdV-B21a; assay: as above; format: cell-based, human adenovirus
Description: as §1, §2

[4] = test system: HAdV-B34; assay: as above; format: cell-based, human adenovirus
Description: as §1, §2

[5] = test system: HAdV-D8; assay: as above; format: cell-based, human adenovirus
Description: as §1, §2

[6] = test system: MAdV-1-pIX-FS2A-GFP; assay: fluorescence-based plaque-forming assay, CMT-93 cells; format: cell-based, mouse adenovirus 1
Description: (§3) Per 96-well plate, 15,000 A549 cells, 10,000 HeLa cells, 30,000 HBECs, 30,000 HCE cells, or 30,000 CMT-93 cells were seeded in 100 μl of the respective supplemented medium and allowed to settle for 1 h at room temperature (RT) prior to cell culture incubation at 37°C with 5% CO2 and 95% humidity. The following day, the medium was replaced with 50 μl of the respective virus stock dilution giving rise to 5 to 50 plaques per 96-well plate. Fifty microliters of nelfinavir to obtain a 0.1 to 50 μM final concentration or the DMSO solvent control was also added, both in supplemented medium. For each experiment, a noninfected, treated control was performed. […] Plates were imaged on either an IXM-XL or an IXM-C automated high-throughput fluorescence microscope (Molecular Devices, San Jose, CA, USA) using a 4× objective in wide-field mode. Hoechst staining was recorded in the 4′,6-diamidino-2-phenylindole (DAPI) channel, the fluorescein isothiocyanate (FITC)/GFP channel was acquired for viral GFP, and the tetramethyl rhodamine isothiocyanate (TRITC)/Texas Red channel was acquired for hexon immunofluorescence staining.
(§4) The infection phenotype for each well was quantified using Plaque2.0 ([101]). The number of plaques was determined based on the infection signal (viral GFP or hexon immunofluorescence staining). […] The mean TI50 was calculated as the EC50/TC50 ratio of the means. […]

[7] = test system: MAdV-3-pIX-FS2A-GFP; assay: as above; format: cell-based, mouse adenovirus
Description: as §3, §4

[8] = test system: HAdV-C2-dE3B-GFP; set-up: method as in earlier work; conditions: A549, 1.25 μM compound, normalized to neg. ctr., cited from earlier work
[9] = test system: HIV aspartyl protease; set-up: method as in PMID 9397180, PMID 9725550; conditions: cited from earlier work
[10] = test system: A549 cells; conditions: cited from earlier work

For Cc1c(O)cccc1C(=O)N[C@@H](CSc1ccccc1)[C@H](O)CN1C[C@H]2CCCC[C@H]2C[C@H]1C(=O)NC(C)(C)C [Nelfinavir, Nelfinavir mesylate], the TC50 ([1]; human, 1 days) was 49.50 µM, the “TC50 (50% loss of cell nuclei)” value ([1]; human, 82 h) was 10.01 µM and the TC50 ([1]; human, 6 days) was 19.08 µM. The TC50 ([1]; noninfected A549, nuclei, 3 dpi, line HAdV-C5) was 11.91 µM, the “TI50 (TC50/IC50)” value [2] was 0.53 and the “TI50 (TC50/IC50)” value ([2]; listed as nelfinavir) was less than 1. For the same compound, the EC50 ([2]; Human adenovirus sp., HAdV-B11 in A549, fixation 3 dpi, read-out Hexon, plaque numbers) was 28.9 µM, the “TI50 (TC50/IC50)” value ([3]; HAdV-B21a in A549, 4 dpi, Hexon) was 1.27 and the EC50 ([3]; Human adenovirus sp., HAdV-B21a in A549, fixation 4 dpi, read-out Hexon, plaque numbers) was 16 µM. The “TI50 (TC50/IC50)” value ([4]; HAdV-B34 in A549, 4 dpi, Hexon) was 6.40, the EC50 ([4]; Human adenovirus sp., HAdV-B34 in A549, fixation 4 dpi, read-out Hexon, plaque numbers) was 3.18 µM and the “TI50 (TC50/IC50)” value ([5]; HAdV-D8 in A549, 5 dpi, Hexon) was 2.36. The EC50 ([5]; Human adenovirus sp., HAdV-D8 in A549, fixation 5 dpi, read-out Hexon, plaque numbers) was 9.09 µM, the “TI50 (TC50/IC50)” value ([6]; MAdV-1-pIX-FS2A-GFP in CMT-93, 4 dpi, GFP) was 1.03 and the EC50 ([6]; Murine mastadenovirus A, CMT93) was 20.7 µM. The “TI50 (TC50/IC50)” value ([7]; MAdV-3-pIX-FS2A-GFP in CMT-93, 4 dpi, GFP) was 3.00, the EC50 ([7]; Murine mastadenovirus A, CMT93) was 8.7 µM and the “Normalized mean read-outs: Infected nuclei” value ([8]; analysis EPFL) was 0.20. For the same compound, the “Normalized mean read-outs: Infection index” value ([8]; analysis EPFL) was 0.27, the “Normalized mean read-outs: Nuclei” value ([8]; analysis EPFL) was 0.74 and the “Normalized mean read-outs: Plaques” value ([8]; analysis EPFL) was 0.00. The “Normalized mean read-outs: Virus intensity” value ([8]; analysis EPFL) was 0.33 AU, the “Normalized mean read-outs: Infected nuclei” value ([8]; analysis UZH) was 0.20 and the “Normalized mean read-outs: Infection index” value ([8]; analysis UZH) was 0.23. The “Normalized mean read-outs: Nuclei” value ([8]; analysis UZH) was 0.85, the “Normalized mean read-outs: Plaques” value ([8]; analysis UZH) was 0.0274 and the “Normalized mean read-outs: Virus intensity” value ([8]; analysis UZH) was 0.30 AU. For the same compound, the inhibitory concentration [9] was “low-nanomolar range” and the Toxic [10] was “no”.
